# Data: patent US5129937A, “Pyridyloxypyrimidine derivatives, preparation process thereof, and herbicidal compositions containing the same as active ingredients” (Mitsui Toatsu Chemicals Incorporated, priority 1989, dated 1992)
# Tests used:
# Rice (Oryza sativa) [1] = experiment: Submerged Soil Treatment Test (Growth Stage Treatment), crop injury; type: in vivo; settings: 30 g ai/a, growth stage treatment (barnyardgrass two-leaf stage), granule, transplanted rice, observed 30 days later
# Procedure: (§1) 1/5000-are Wagner pots were filled with soil. Seeds or tubers of barnyardgrass, bulrush and Sagittaria pygmaea were seeded or planted under submerged condition. Two pairs of rice seedlings (2-3 leaf stage), which had been reared in advance, were transplanted to each pot and were allowed to grow in a green house. Each pair consisted of two rice seedlings. When the barnyardgrass grew to the two-leaf stage, each pot was treated with a granule which had been prepared by processing a predetermined amount of the test composition in accordance with a similar method to the method described in Formulation Example 9. The state of emergence of weeds and the state of injury of rice were observed 30 days later. In the table, the degrees of damages of the test plants and the degrees of injury of the rice are shown in a similar manner to Example 2.
# [2] = tested on: Barnyardgrass (Echinochloa crus-galli); experiment: Submerged Soil Treatment Test (Growth Stage Treatment); type: in vivo; settings: 30 g ai/a, growth stage treatment (barnyardgrass two-leaf stage), granule, observed 30 days later
# Procedure: as §1
# [3] = tested on: Arrowhead sp. (Sagittaria pygmaea); experiment: as above; type: in vivo; settings: 30 g ai/a, growth stage treatment (barnyardgrass two-leaf stage), granule, observed 30 days later
# Procedure: as §1
# [4] = tested on: Bulrush (Scirpus juncoides); experiment: as above; type: in vivo; settings: 30 g ai/a, growth stage treatment (barnyardgrass two-leaf stage), granule, observed 30 days later
# Procedure: as §1
# [5] = tested on: Cotton (Gossypium indicum); experiment: Upland Soil Application Test, crop injury; type: in vivo; settings: 30 g ai/a; soil application before emergence, wettable powder; observed 30 days later
# Procedure: (§2) Resin-made 1/2500-are pots were filled with the soil of an upland field. After they were fertilized, soybean, corn and cotton were seeded and 2-3 cm soil covering was applied. Seeds of redroot pigweed, morningglory (Ipomoea purpurea), common lambsquarters, barnyardgrass, green foxtail, large crabgrass, foxtail meadow and johnsongrass had been uniformly mixed with the soil. They were allowed to germinate in a green house. One day later (before emergence of weeds), a wettable powder prepared from a predetermined amount of each test compound in a similar manner to the method described in Formulation Example 1 was diluted with water and then sprayed evenly at an application rate equal to 10 l per are onto the surface of the soil by means of a pressure-operated ULV (ultra low volume) sprayer. Influence to the crops and weeds were observed 30 days later. The results are shown in Table 3, in which the degree of damages of each test plant and the degree of injury to each crop were determined by comparing the air-dried weights of the test plant and crop with those of the corresponding plant and crop in untreated pots and are shown in accordance with the following standard: […]
# Corn (Zea maize) = experiment: Upland Soil Application Test, crop injury; type: in vivo; settings: 30 g ai/a; soil application before emergence, wettable powder; observed 30 days later
# Procedure: as §2
# Soybean (Glycine max) = experiment: Upland Soil Application Test, crop injury; type: in vivo; settings: 30 g ai/a; soil application before emergence, wettable powder; observed 30 days later
# Procedure: as §2
# [6] = tested on: ALS (acetolactate synthase); experiment: ALS (Acetolactate Synthase) Inhibition Test, pea enzyme; type: biochemical; settings: enzymoreaction inhibition rate at 10 ppm (5 μg/0.5 ml)
# Procedure: To determine the selectivity in enzyme level between crops and weeds, an ALS inhibition test was conducted using pea as a representative of broadleaf crops and barnyardgrass as a representative of gramineous weeds.
# After seeds of pea and barnyardgrass were allowed to germinate at 25° C. for 8-14 days in a dark place, partially-purified suspensions (Suspensions A) of acetolactate syntase were separately obtained from seedlings in accordance with the method described in the literature, Plant Physiology, 75, 827-831. In a test tube, […], followed by the addition of 0.15 ml of a 20 mM K2 HPO4 solution and 0.25 ml of a reaction substrate medium which consisted of 40 mM of K2 HPO4, 40 mM of sodium pyruvate, 1 mM of TPP, 1 mM of MgCl2 and 20 μM of FAD so that 0.4 ml of a reaction solution (Solution B) was prepared. Added to 0.4 ml of Solution B was 0.1 ml of Suspension A. After the resultant mixture was shaken for 1 hour in a thermostat water bath controlled at 30° C., 50 μl of 6N sulfuric acid were added to terminate the reaction.
# Next, the reaction-terminated liquid mixture was transferred into a thermostat water bath controlled at 60° C. and was heated for 15 minutes. Thereafter, 0.5 ml of a 0.5% creatine solution and 0.5 ml of a 5% alkaline α-naphthol solution were added, and the resultant mixture was maintained at 60° C. for 15 minutes. As a result, the test solution developed a pink-red color. After the above operation, the absorbance of the test solution at 525 nm was measured by a spectrophotometer (Absorbance 1 of Test Compound).
# On the other hand, the absorbance (Absorbance 2 of Blank) of a solution obtained by subjecting a portion of Solution B, said portion being free of the test compound, to the above operation and the absorbance (Absorbance 3 of sulfuric acid terminated) of another solution obtained by subjecting another portion of Solution B, said portion containing 50 μl of 6N sulfuric acid as a test compound, were measured at the same time. […] [formula]
# Rice (Oryza sativa) [7] = experiment: Submerged Soil Treatment Test (Pre-Emergence Treatment), crop injury; type: in vivo; settings: 30 g ai/a, granule, transplanted rice, observed 30 days later
# Procedure: as §1, with “allowed to germinate in a” for “allowed to grow in a”, “rice seedlings. On day later (before emergence of weeds), each pot” for “rice seedlings. When the barnyardgrass grew to the two-leaf stage, each pot”, “injury of rice are” for “injury of the rice are”
structure (smiles),measurement,setting,value
COc1cc(OC)nc(Oc2cccnc2C2OCCCO2)n1 [Compound No. 8],Crop injury Rice (Oryza sativa),Rice (Oryza sativa) [1],0 (91-100 (No damages))
same,Herbicidal effects Barnyardgrass (Echinochloa crus-galli),[2],4 (6-10 (Severe damages))
same,Herbicidal effects Arrowhead sp. (Sagittaria pygmaea),[3],2 (41-70 (Small damages))
same,Herbicidal effects Bulrush (Scirpus juncoides),[4],2 (41-70 (Small damages))
same,Crop injury Cotton (Gossypium indicum),[5],0 (91-100 (No damages))
same,Crop injury Corn (Zea maize),Corn (Zea maize),0 (91-100 (No damages))
same,Crop injury Soybean (Glycine max),Soybean (Glycine max),0 (91-100 (No damages))
same,Inhibition rate (%) Pea,[6],0%
same,Crop injury Rice (Oryza sativa),Rice (Oryza sativa) [7],0 (91-100 (No damages))
